Our source for the inhibition values is EP1724268A1, “COMPOUND HAVING TGF-BETA INHIBITORY ACTIVITY AND PHARMACEUTICAL COMPOSITION CONTAINING SAME” (KIRIN BEER KABUSHIKI KAISHA, priority 2004, dated 2005).

This test relates to TGFβ signal. Description: TGFβ signal inhibitory activity, (SBE)4-Luc reporter in A549 cells (Test Examples 1A and 1B). As to conditions: Homo sapiens, A549, read-out: TGFβ inhibition rate, %. It counts as cell-based, human. The gist of the method:
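Compounds at 3 µM and 10 µM (some 1 µM) were added with 2 ng/ml TGFβ-1 to A549 cells stably expressing an SBE-driven luciferase, then cultured 4 hr. Chemiluminescent luciferase signal gave % inhibition versus TGFβ-alone and no-TGFβ controls.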

The mark [1] stands for this setting: test compound 3 µM, Reference Examples, Table 1B.
The mark [2] stands for this setting: test compound 10 µM, Reference Examples, Table 1B.
Setting [3] is: 3 µM, compounds of Reference Examples (Test Example 1B).
Where [4] appears, read: 10 µM, compounds of Reference Examples (Test Example 1B).

Where two headings read alike, the source gives them in different places.

Turning to `COc1cc2c(Oc3ccc(C)cc3C(=O)c3ccccc3)ccnc2cc1OCCN1CCNCC1` [Compound r128], the inhibition at 3 µM under setting [1] was 100%. Also, the inhibition at 10 µM under setting [2] was found to be 100%.
On to `COc1cc2c(Oc3ccc(C)cc3C(=O)c3ccccc3)ccnc2cc1OCCN1CCN(C)CC1` [Compound r129], for which the inhibition at 3 µM under setting [1] was found to be 100%. Besides, under setting [2], the inhibition at 10 µM is 100%.
Consider `COc1cc2c(Oc3ccc(C)cc3C(=O)c3ccccc3)ccnc2cc1OCCN1CCOCC1` [Compound r130], for which the inhibition at 3 µM under setting [1] stood at 90%. Further, the inhibition at 10 µM under setting [2] was determined as 100%.
The corresponding values for `COc1cc2c(Oc3ccc(C)cc3C(=O)c3ccccc3)ccnc2cc1OCCn1ccnc1` [Compound r131] are 96% and 100%.
On the same counts, the results for `COc1cc2c(Oc3ccc(C)cc3C(=O)c3ccccc3)ccnc2cc1OCCCCl` [Compound r132] are 72% and 99%.
With `COc1cc2c(Oc3ccc(C)cc3C(=O)c3ccccc3)ccnc2cc1OCCCNCCO` [Compound r133], the inhibition at 3 µM under setting [1] amounted to 100%. Further, the inhibition at 10 µM under setting [2] was determined as 100%.
Consider `CCN(CC)CCCOc1cc2nccc(Oc3ccc(C)cc3C(=O)c3ccccc3)c2cc1OC` [Compound r134], for which the inhibition at 3 µM under setting [1] worked out at 100%. Under setting [2], the inhibition at 10 µM turned out to be 100%.
Regarding `COc1cc2c(Oc3ccc(C)cc3C(=O)c3ccccc3)ccnc2cc1OCCCN1CCC(N2CCCC2)CC1` [Compound r136], the inhibition at 3 µM under setting [1] turned out to be 90%. In addition, the inhibition at 10 µM under setting [2] came to 100%.
On the same counts, the results for `COc1cc2c(Oc3ccc(C)cc3C(=O)c3ccccc3)ccnc2cc1OCCCCCl` [Compound r141] are 55% and 89%.
The corresponding values for `COc1cc2c(Oc3ccc(C)cc3C(=O)c3ccccc3)ccnc2cc1OCCCCN1CCC(CO)CC1` [Compound r144] are 99% and 100%.
The corresponding values for `COc1cc2c(Oc3ccc(C)cc3C(=O)c3ccccc3)ccnc2cc1OCCCCN1CCC(N2CCCC2)CC1` [Compound r145] are 87% and 100%.
As for `COc1cc2c(Oc3ccc(C)cc3C(=O)c3ccccc3)ccnc2cc1OCCCCN1CCC(N2CCCCC2)CC1` [Compound r146], the inhibition at 3 µM under setting [1] came to 64%. The inhibition at 10 µM under setting [2] was 100%.
On the same counts, the results for `COc1cc2c(Oc3ccc(C)cc3C(=O)c3ccccc3)ccnc2cc1OCCCCN1CCNCC1` [Compound r147] are 98% and 100%.
For `COc1cc2c(Oc3ccc(C)cc3C(=O)c3ccccc3)ccnc2cc1OCCCCN1CCN(C)CC1` [Compound r148], under setting [1], the inhibition at 3 µM came to 99%. For the same compound, under setting [2], the inhibition at 10 µM worked out at 100%.
The corresponding values for `COc1cc2c(Oc3ccc(C)cc3C(=O)c3ccccc3)ccnc2cc1OCCCCN1CCOCC1` [Compound r149] are 96% and 100%.
The corresponding values for `COc1cc2c(Oc3ccc(C)cc3C(=O)c3ccccc3)ccnc2cc1OCCCCn1ccnc1` [Compound r150] are 97% and 100%.
The corresponding values for `COc1cc2c(Oc3ccc(C)cc3C(=O)c3ccccc3)ccnc2cc1OCC1CO1` (stereo not shown) [Compound r151] are 95% and 100%.
`COc1cc2c(Oc3ccc(C)cc3C(=O)c3ccccc3)ccnc2cc1OCC(O)CNCCO` (stereo not shown) [Compound r152]: the inhibition at 3 µM under setting [1] turned out to be 99%. Moreover, under setting [2], the inhibition at 10 µM amounted to 100%.
On the same counts, the results for `COc1cc2c(Oc3ccc(C)cc3C(=O)c3ccccc3)ccnc2cc1OCC(O)CN1CCC(N2CCCCC2)CC1` (stereo not shown) [Compound r156] are 99% and 100%.
The corresponding values for `COc1cc2c(Oc3ccc(C)cc3C(=O)c3ccccc3)ccnc2cc1OCC(O)CN1CCNCC1` (stereo not shown) [Compound r157] are 100% and 100%.
On the same counts, the results for `COc1cc2c(Oc3ccc(C)cc3C(=O)c3ccccc3)ccnc2cc1OCC(O)CN1CCN(C)CC1` (stereo not shown) [Compound r158] are 100% and 100%.
Consider `COc1cc2c(Oc3ccc(C)cc3C(=O)c3ccccc3)ccnc2cc1OCC(O)CN1CCOCC1` (stereo not shown) [Compound r159], for which, under setting [1], the inhibition at 3 µM amounted to 98%. Also, the inhibition at 10 µM under setting [2] worked out at 100%.
On the same counts, the results for `CCOC(=O)c1ccccc1C(=O)c1ccnc2cc(OC)c(OC)cc12` [Compound r163, Ethyl 2-[(6,7-dimethoxy-4-quinolyl)carbonyl]benzoate] are 3% and 67%.
In the case of `COc1cc2nccc(Oc3cc(C)c(C)cc3I)c2cc1OC` [Compound r164, 4-(2-Iodo-4,5-dimethyl-phenoxy)-6,7-dimethoxy-quinoline], the inhibition at 3 µM under setting [3] came to 54%. The inhibition at 10 µM under setting [4] stood at 98%.
The corresponding values for `COc1cc2nccc(Oc3cc(C)c(C)cc3-c3ccccn3)c2cc1OC` [Compound r169] are 99% and 100%.
The corresponding values for `COc1cc2nccc(Oc3ccc(OCc4ccccc4)cc3C(C)=O)c2cc1OC` [Compound r175, 1-[5-Benzyloxy-2-(6,7-dimethoxy-quinotin-4-yloxy)-phenyl]-ethanone] are 13% and 60%.
The corresponding values for `CCOc1ccc(Oc2ccnc3cc(OC)c(OC)cc23)c(C(C)=O)c1` [Compound r178, 1-[2-(6,7-Dimethoxy-quinolin-4-yloxy)-5-ethoxy-phenyl]-ethanone] are 66% and 97%.
For `CCCOc1ccc(Oc2ccnc3cc(OC)c(OC)cc23)c(C(C)=O)c1` [Compound r179], the inhibition at 3 µM under setting [3] was 18%. Moreover, the inhibition at 10 µM under setting [4] was 68%.
On the same counts, the results for `COc1cc2nccc(Oc3cc(Cl)c(C)cc3C(C)=O)c2cc1OC` [Compound r184] are 100% and 100%.
The corresponding values for `COc1cc2nccc(Oc3cc(C(C)(C)C)c(OC)cc3C(C)=O)c2cc1OC` [Compound r185] are 11% and 59%.
The corresponding values for `COc1cc2nccc(Oc3cc(C)c(SC)cc3C(C)=O)c2cc1OC` [Compound r186] are 76% and 100%.
With `COc1cc2nccc(Oc3ccc(C)cc3C(=O)c3ccc(OCCCl)cc3)c2cc1OC` [Compound r189], under setting [3], the inhibition at 3 µM was determined as 86%. The inhibition at 10 µM under setting [4] came out at 100%.
The corresponding values for `COc1cc2nccc(Oc3ccc(C)cc3C(=O)c3ccc(OCCN4CCCCC4)cc3)c2cc1OC` [Compound r190] are 30% and 86%.
The corresponding values for `COc1cc2nccc(Oc3ccc(C)cc3C(=O)c3ccc(OCCN4CCOCC4)cc3)c2cc1OC` [Compound r191] are 39% and 93%.
The corresponding values for `COc1cc2nccc(Oc3cc(C)c(C)cc3C(C)=NN)c2cc1OC` [Compound r193, {1-[2-(6,7-Dimethoxy-quinolin-4-yloxy)-4,5-dimethylphenyl]-ethylidene}-hydrazine] are 74% and 99%.
For the compound `COc1cc2nccc(Oc3cc(C)c(C)cc3C(C)=NNc3ccccn3)c2cc1OC` [Compound r194], the inhibition at 3 µM under setting [3] was 47%. Moreover, under setting [4], the inhibition at 10 µM worked out at 94%.
The corresponding values for `COc1cc2nccc(Oc3cc(C)c(C)cc3C(C)=NO)c2cc1OC` [Compound r195] are 99% and 100%.
On the same counts, the results for `C=CCON=C(C)c1cc(C)c(C)cc1Oc1ccnc2cc(OC)c(OC)cc12` [Compound r197] are 40% and 88%.
On the same counts, the results for `COc1cc2nccc(Oc3cc4ccccc4cc3C(C)=O)c2cc1OC` [Compound r200, 1-[3-(6,7-Dimethoxy-quinolin-4-yloxy)-naphthalene-2-yl]-ethanone] are 94% and 100%.
On to `COc1cc2nccc(Oc3cccnc3OC3CCCC3)c2cc1OC` [Compound r204, 4-(2-Cyclopentyloxy-pyridin-3-yloxy)-6,7-dimethoxy-quinoline], for which the inhibition at 3 µM under setting [3] came out at 14%. In addition, the inhibition at 10 µM under setting [4] worked out at 77%.
Take `COc1ccc(Oc2ccnc3cc(OC)c(OC)cc23)cn1` [Compound r207, 6,7-Dimethoxy-4-(6-methoxy-pyridin-3-yloxy)-quinoline]: under setting [3], the inhibition at 3 µM came out at 77%. The inhibition at 10 µM under setting [4] came to 99%.
On the same counts, the results for `COc1cc2nccc(Oc3ccc(C)nc3C)c2cc1OC` [Compound r209] are 99% and 100%.
Consider `COc1cc2nccc(Oc3ccc(C)nc3C#N)c2cc1OC` [Compound r213, 3-(6,7-Dimethoxy-quinolin-4-yloxy)-6-methyl-pyridin-2-carbonitrile], for which, under setting [3], the inhibition at 3 µM came out at 28%. The inhibition at 10 µM under setting [4] came out at 65%.
On the same counts, the results for `COc1cc2nccc(Oc3ccc(C)nc3C(OC(C)=O)c3cccc(C)n3)c2cc1OC` (stereo not shown) [Compound r219] are 20% and 67%.
The corresponding values for `COc1cc2nccc(Oc3ccc(C)nc3C(=O)c3ccccc3)c2cc1OC` [Compound r220] are 99% and 100%.
On the same counts, the results for `COc1cc2nccc(Oc3ccc(C)nc3-c3ccccc3)c2cc1OC` [Compound r223, 6,7-Dimethoxy-4-(6-methyl-2-phenyl-pyridin-3-yloxy)-quinoline] are 99% and 100%.
As for `COc1cc2nccc(Oc3ccc(C)nc3-c3ccccc3C)c2cc1OC` [Compound r224], the inhibition at 3 µM under setting [3] is 69%. Moreover, the inhibition at 10 µM under setting [4] was determined as 96%.
